PMC8765310, “Metabolism, Excretion, and Mass Balance of [^14C]-Rezafungin in Animals and Humans” (Antimicrobial Agents and Chemotherapy, 2022)
*1 amine or outer side, *2 acyl side, *3 side chain or, on linkers, in order; H or OH if unused. Where a SMILES comes first, the peptide text is derived from it. Bridges are numbered along the chain shown (N, C = ends). [ ]: non-standard residue; d: D form. The star is where a group is joined. Orn(4R-OH,5R-OCH2CH2NMe3+) = C[N+](C)(C)CCO[C@@H](N[*:3])[C@H](O)C[C@H](N[*:1])C(=O)[*:2]; hTyr(3S-OH,4S-OH) = N[C@H](C(=O)O)[C@H](O)[C@@H](O)c1ccc(O)cc1; X1 = CC(O)CCCOc1ccc(-c2ccc(-c3ccc(C(=O)*)cc3)cc2)cc1; X2 = CCCC(O)COc1ccc(-c2ccc(-c3ccc(C(=O)*)cc3)cc2)cc1; X3 = CCC(O)CCOc1ccc(-c2ccc(-c3ccc(C(=O)*)cc3)cc2)cc1; Pro(3S-OH,4S-Me) = C[C@H]1CN[C@H](C(=O)O)[C@H]1O; X4 = O=C(c1ccc(-c2ccc(-c3ccc(O)cc3)cc2)cc1)*; Hyp = O=C(O)[C@@H]1C[C@@H](O)CN1

Key:
[1] = Rat metabolite profiling (LC-MS with radioactivity detection); type: in vivo, Sprague-Dawley rats; conditions: rat, in vivo, iv, 15 mg/kg
Procedure: (i) Rat study design. The study used 12 male Sprague-Dawley rats, each administered a bolus IV injection into the tail vein over approximately 3–4 min of 15 mg/kg of rezafungin (with a target radioactivity of 200 μCi/kg of [^14C]-rezafungin). Three of the rats were bile duct cannulated. Whole blood/plasma, urine, feces/bile, and cage washings were collected at periodic intervals from noncannulated rats until euthanization at 336 h postdose and from bile duct cannulated rats until euthanization at 120 h postdose as that was the duration that the patency of bile duct cannulae could be maintained. Carcasses were collected at the time of euthanization. All samples were analyzed for drug-derived radioactivity by liquid scintillation counting.
(§1) (iv) Metabolite profiling. The metabolite identification and urine profiling were achieved using pooled samples by equal percent weight of samples (urine, bile, feces) or by equal volume (50 μl) aliquots of each plasma sample across all time points/intervals. The urine, plasma, bile, and fecal samples were analyzed using liquid chromatography tandem mass spectrometry (LC-MS) coupled with a radioactivity flow-through detector for metabolite profiling and identification. Tandem MS experiments were performed, and the structures of the metabolites were proposed based on their MS/MS spectra. The proposed structures were confirmed by comparison of the retention times and product ion spectra with the authentic reference standards when possible.

[2] = Monkey metabolite profiling (LC-MS with radioactivity detection); type: in vivo, cynomolgus monkeys; conditions: cynomolgus monkey, in vivo, iv, 10 mg/kg
Procedure: (ii) Monkey study design. The study used 3 male cynomolgus monkeys, each administered a single 10 mg/kg IV dose of [^14C]-rezafungin (with a target radioactivity of 100 μCi/kg of [^14C]-rezafungin) by infusion into a saphenous vein over 20 min. Whole blood and plasma samples were collected at each of the following time points: predose, 0.5, 2, 4, 8, 24, 48, 96 120, 144, 168, 240, 480, 720, and 1440 h postdose. Urine, feces, and cage washings were collected at predose (urine/feces only) and daily 24-h collections for 30 days.
as §1

[3] = cited from earlier work
Source text: Biliary excretion has been observed for caspofungin([17]) and anidulafungin([18]). In the case of anidulafungin, although uncommon, passive diffusion (up to 10% of dosed fraction) was reported for anidulafungin, with which rezafungin ...

Row | Compound | Share of total plasma radioactivity exposure [1] | Share of total recovered radioactivity in urine [1] [%] | Share of total plasma radioactivity exposure [2] [%] | Share of total recovered radioactivity in urine [2] [%] | Share of total recovered radioactivity in feces [2] [%] | Passive diffusion, dosed fraction [3]
1 | anidulafungin | – | – | – | – | – | up to 10 % of dosed fraction
2 | CC(O)CCCOc1ccc(-c2ccc(-c3ccc(C(=O)N[C@H]4C[C@@H](O)[C@@H](OCC[N+](C)(C)C)NC(=O)[C@@H]5[C@@H](O)[C@@H](C)CN5C(=O)[C@H]([C@@H](C)O)NC(=O)[C@H]([C@H](O)[C@@H](O)c5ccc(O)cc5)NC(=O)[C@@H]5C[C@@H](O)CN5C(=O)[C@H]([C@@H](C)O)NC4=O)cc3)cc2)cc1 (stereo partly drawn) [4’-hydroxylpentyl rezafungin] (X1-[Orn(4R-OH,5R-OCH2CH2NMe3+)]T[Hyp][hTyr(3S-OH,4S-OH)]T[Pro(3S-OH,4S-Me)]; lactam 1-C) | about 33% | 62 | 8.3 | 42 | – | –
3 | C[C@@H](O)[C@@H]1NC(=O)[C@H]([C@H](O)[C@@H](O)c2ccc(O)cc2)NC(=O)[C@@H]2C[C@@H](O)CN2C(=O)[C@H]([C@@H](C)O)NC(=O)[C@@H](NC(=O)c2ccc(-c3ccc(-c4ccc(O)cc4)cc3)cc2)C[C@@H](O)[C@@H](OCC[N+](C)(C)C)NC(=O)[C@@H]2[C@@H](O)[C@@H](C)CN2C1=O [despentyl-rezafungin] (X4-[Orn(4R-OH,5R-OCH2CH2NMe3+)]T[Hyp][hTyr(3S-OH,4S-OH)]T[Pro(3S-OH,4S-Me)]; lactam 1-C) | – | 28 | – | 22 | 25 | –

Continued, in another order:

Row | Share of total plasma radioactivity exposure [1] | Share of total recovered radioactivity in urine [1] [%] | Share of total plasma radioactivity exposure [2] [%] | Share of total recovered radioactivity in urine [2] [%] | Share of total recovered radioactivity in feces [2] [%] | Compound | Passive diffusion, dosed fraction [3]
4 | ~11% | 7.8 | 3.0 | 25 | – | CCCC(O)COc1ccc(-c2ccc(-c3ccc(C(=O)N[C@H]4C[C@@H](O)[C@@H](OCC[N+](C)(C)C)NC(=O)[C@@H]5[C@@H](O)[C@@H](C)CN5C(=O)[C@H]([C@@H](C)O)NC(=O)[C@H]([C@H](O)[C@@H](O)c5ccc(O)cc5)NC(=O)[C@@H]5C[C@@H](O)CN5C(=O)[C@H]([C@@H](C)O)NC4=O)cc3)cc2)cc1 (stereo partly drawn) [2’-hydroxylpentyl rezafungin] (X2-[Orn(4R-OH,5R-OCH2CH2NMe3+)]T[Hyp][hTyr(3S-OH,4S-OH)]T[Pro(3S-OH,4S-Me)]; lactam 1-C) | –
5 | – | 1.9 | 6.3 | 12 | – | CCC(O)CCOc1ccc(-c2ccc(-c3ccc(C(=O)N[C@H]4C[C@@H](O)[C@@H](OCC[N+](C)(C)C)NC(=O)[C@@H]5[C@@H](O)[C@@H](C)CN5C(=O)[C@H]([C@@H](C)O)NC(=O)[C@H]([C@H](O)[C@@H](O)c5ccc(O)cc5)NC(=O)[C@@H]5C[C@@H](O)CN5C(=O)[C@H]([C@@H](C)O)NC4=O)cc3)cc2)cc1 (stereo partly drawn) [3′-hydroxylpentyl rezafungin] (X3-[Orn(4R-OH,5R-OCH2CH2NMe3+)]T[Hyp][hTyr(3S-OH,4S-OH)]T[Pro(3S-OH,4S-Me)]; lactam 1-C) | –
